Assay results taken from patent US9353107B2 (Aurigene Discovery Technologies Limited, priority 2012, dated 2016).
Structures can show the parent of a compound that is named as a salt.

Biological target: T1, recombinant human ALK enzyme (ALK WT) (Homo sapiens, UniProt Q9UM73)
T1 construct: purchased Carna Biosciences 08-518
Assay: ALK WT cell free enzymatic assay (TR-FRET)
Format: biochemical
Conditions: 1 μM ATP; for IC50: 10 point dose response; for inhibition at 0.1 µM: compound at 100 nM; for inhibition at 0.1 µM / inhibition at 1 µM: 30 min pre-incubation; for inhibition at 1 µM: compound at 1 μM
Method: ALK Wild Type (WT) The ALK WT cell free assay was set up to evaluate the effects of these compounds as inhibitors of ALK enzyme. The enzymatic assay was standardized using recombinant human ALK enzyme (Cat#08-518) from Carna Biosciences using Ultra Light Poly GT (Cat# TRF 0100D) from Perkin Elmer as a substrate. TR-FRET (Time resolved fluorescence resonance energy transfer) detection technology was used for the read out. The final assay conditions were 50 mM HEPES pH 7.1, 10 mM MgCl2, 2 mM MnCl2, 0.01% BSA, 2.5 mM DTT, 0.1 mM Na3 VO4, 40 nM Ultra Light Poly GT, 2.5 ng ALK WT enzyme, 1 μM ATP and 125 nM Lance Eu-W1024 labeled anti phospho tyrosine antibody (Cat# AD0203, Perkin Elmer) in 384 well format. The assay reaction time with the substrate was 30 minutes after which the antibody detection mix is added. The TR-FRET signal (Excitation at 340 nm, Emission at 615 nm and 665 nm) was read with 50 μs delay time on Victor^3 V fluorimeter. The data is calculated using the ratio of reading at 665 nM to 615 nM. The final concentration of DMSO was 1% in the assay. Compounds were screened at 100 nM and 1 μM concentrations with pre-incubation of the enzymes with compound for 30 minutes. Each individual IC50 was determined using 10 point dose response curve generated by GraphPad Prism software Version 4 (San Diego, Calif., USA) using non linear regression curve fit for sigmoidal dose response (variable slope). Percentage inhibition at concentrations of 100 nM and 1.0 μM are given in table along with the IC50 (nM) details for selected examples.

T1 sequence (Q9UM73 1058-1620 limits assumed): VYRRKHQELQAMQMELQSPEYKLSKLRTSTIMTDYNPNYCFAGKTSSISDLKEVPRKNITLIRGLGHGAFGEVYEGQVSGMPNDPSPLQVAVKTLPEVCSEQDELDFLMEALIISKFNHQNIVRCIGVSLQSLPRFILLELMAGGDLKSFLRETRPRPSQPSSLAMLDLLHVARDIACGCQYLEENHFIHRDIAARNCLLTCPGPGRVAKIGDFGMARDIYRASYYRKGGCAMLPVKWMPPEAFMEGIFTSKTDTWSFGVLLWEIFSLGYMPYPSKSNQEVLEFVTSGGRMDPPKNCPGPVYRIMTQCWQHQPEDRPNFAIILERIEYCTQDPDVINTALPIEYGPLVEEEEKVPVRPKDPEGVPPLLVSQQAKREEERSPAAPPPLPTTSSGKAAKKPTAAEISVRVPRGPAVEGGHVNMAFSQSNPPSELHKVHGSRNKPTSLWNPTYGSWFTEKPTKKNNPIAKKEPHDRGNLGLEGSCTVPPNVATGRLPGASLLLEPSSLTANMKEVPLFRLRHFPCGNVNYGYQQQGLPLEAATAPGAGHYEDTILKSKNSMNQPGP

An IC50 of 50 to 250 nM, an inhibition at 0.1 µM of 32% and an inhibition at 1 µM of 94% were found for `COc1ccc(-c2cnc3[nH]cc(-c4cnn(CCc5ccc(F)cc5)c4)c3c2)cc1NS(C)(=O)=O` [Example 76, N-(5-(3-(1-(4-fluorophenethyl)-1H-pyrazol-4-yl)-1H-pyrrolo[2,3-b]pyridin-5-yl)-2-methoxyphenyl)methanesulfonamide] in this work.
An inhibition at 0.1 µM of 76% and an inhibition at 1 µM of 100% were found for `CN1CCN(c2ccc(-c3cnc4[nH]cc(-c5cnn(CCc6ccccc6)c5)c4c3)cc2)CC1` [Example 109, 5-(4-(4-methylpiperazin-1-yl)phenyl)-3-(1-phenethyl-1H-pyrazol-4-yl)-1H-pyrrolo[2,3-b]pyridine] in this work.
An IC50 of less than 50 nM, an inhibition at 0.1 µM of 98% and an inhibition at 1 µM of 100% were found for `CN1CCC(c2ccc(-c3cnc4[nH]cc(-c5cnn(Cc6cccc(F)c6)c5)c4c3)cc2F)CC1` [Example 170, 5-(3-fluoro-4-(1-methylpiperidin-4-yl)phenyl)-3-(1-(3-fluorobenzyl)-1H-pyrazol-4-yl)-1H-pyrrolo[2,3-b]pyridine] in this work.
An IC50 greater than 250 nM and an inhibition at 1 µM of 87% were found for `CS(=O)(=O)Nc1cccc(-c2cnc3[nH]cc(-c4cnn(Cc5ccccc5)c4)c3c2)c1` [Example 12, N-(3-(3-(1-benzyl-1H-pyrazol-4-yl)-1H-pyrrolo[2,3-b]pyridin-5-yl)phenyl) methanesulfonamide] in this work.
An IC50 of 50 to 250 nM and an inhibition at 1 µM of 81% were found for `CS(=O)(=O)Nc1cccc(-c2cnc3[nH]cc(-c4cnn(Cc5cccc(Cl)c5)c4)c3c2)c1` [Example 10, N-(3-(3-(1-(3-chlorobenzyl)-1H-pyrazol-4-yl)-1H-pyrrolo[2,3-b]pyridin-5-yl)phenyl)methane sulfonamide] in this work.
An IC50 of less than 50 nM, an inhibition at 0.1 µM of 89% and an inhibition at 1 µM of 99% were found for `Cc1nn(Cc2cccc(F)c2)c(C)c1-c1c[nH]c2ncc(-c3cccc(CC4CCNCC4)c3)cc12` [Example 99, 3-(1-(3-fluorobenzyl)-3,5-dimethyl-1H-pyrazol-4-yl)-5-(3-(piperidin-4-ylmethyl)phenyl)-1H-pyrrolo[2,3-b]pyridine] in this work.
An IC50 of less than 50 nM and an inhibition at 1 µM of 98% were found for `CS(=O)(=O)Nc1cccc(-c2cnc3[nH]cc(-c4cnn(Cc5cccc(F)c5)c4)c3c2)c1` [Example 9, N-(3-(3-(1-(3-fluorobenzyl)-1H-pyrazol-4-yl)-1H-pyrrolo[2,3-b]pyridin-5-yl)phenyl)methanesulfonamide] in this work.
An IC50 of less than 50 nM, an inhibition at 0.1 µM of 97% and an inhibition at 1 µM of 100% were found for `CS(=O)(=O)Nc1cc(-c2cnc3[nH]cc(-c4cnn(Cc5cccc(F)c5)c4)c3c2)ccc1N1CCNCC1` [Example 106, N-(5-(3-(1-(3-fluorobenzyl)-1H-pyrazol-4-yl)-1H-pyrrolo[2,3-b]pyridin-5-yl)-2-(piperazin-1-yl)phenyl)methanesulfonamide hydrochloride] in this work.
An IC50 of less than 50 nM, an inhibition at 0.1 µM of 79% and an inhibition at 1 µM of 97% were found for `c1ccc(Cn2cc(-c3c[nH]c4ncc(-c5ccc(C6CCNCC6)cc5)cc34)cn2)nc1` [Example 93, 5-(4-(piperidin-4-yl)phenyl)-3-(1-(pyridin-2-ylmethyl)-1H-pyrazol-4-yl)-1H-pyrrolo[2,3-b]pyridine] in this work.
An IC50 of less than 50 nM, an inhibition at 0.1 µM of 95% and an inhibition at 1 µM of 99% were found for `C[C@@H](O)CN1CCN(c2ccc(-c3cnc4[nH]cc(-c5cnn(Cc6cccc(F)c6)c5)c4c3)cc2)CC1` [Example 120, (R)-1-(4-(4-(3-(1-(3-fluorobenzyl)-1H-pyrazol-4-yl)-1H-pyrrolo[2,3-b]pyridin-5-yl)phenyl)piperazin-1-yl)propan-2-ol] in this work.
An IC50 of less than 50 nM, an inhibition at 0.1 µM of 64% and an inhibition at 1 µM of 90% were found for `CS(=O)(=O)Nc1cccc(-c2cnc3[nH]cc(-c4cnn(Cc5cccc(C#N)c5)c4)c3c2)c1` [Example 11, N-(3-(3-(1-(3-cyanobenzyl)-1H-pyrazol-4-yl)-1H-pyrrolo[2,3-b]pyridin-5-yl)phenyl)methane sulfonamide] in this work.
An inhibition at 0.1 µM of 70% and an inhibition at 1 µM of 93% were found for `COc1cc(-c2cnc3[nH]cc(-c4cnn(Cc5cccc(F)c5)c4)c3c2)ccc1NS(C)(=O)=O` [Example 68, N-(4-(3-(1-(3-fluorobenzyl)-1H-pyrazol-4-yl)-1H-pyrrolo[2,3-b]pyridin-5-yl)-2-methoxyphenyl) methanesulfonamide] in this work.
An IC50 of less than 50 nM, an inhibition at 0.1 µM of 95% and an inhibition at 1 µM of 100% were found for `COCCN1CCN(c2ccc(-c3cnc4[nH]cc(-c5cnn(Cc6cccc(F)c6)c5)c4c3)cn2)CC1` [Example 149, 3-(1-(3-fluorobenzyl)-1H-pyrazol-4-yl)-5-(6-(4-(2-methoxyethyl)piperazin-1-yl)pyridin-3-yl)-1H-pyrrolo[2,3-b]pyridine] in this work.
An IC50 of 50 to 250 nM, an inhibition at 0.1 µM of 68% and an inhibition at 1 µM of 97% were found for `COc1cc(N2CCN(C[C@H](C)O)CC2)ccc1-c1cnc2[nH]cc(-c3cnn(Cc4cccc(F)c4)c3)c2c1` [Example 116, (S)-1-(4-(4-(3-(1-(3-fluorobenzyl)-1H-pyrazol-4-yl)-1H-pyrrolo[2,3-b]pyridin-5-yl)-3-methoxyphenyl)piperazin-1-yl)propan-2-ol] in this work.
An IC50 of 50 to 250 nM, an inhibition at 0.1 µM of 60% and an inhibition at 1 µM of 97% were found for `C[C@H](O)CN1CCN(c2ccc(-c3cnc4[nH]cc(-c5cnn(Cc6cccc(F)c6)c5)c4c3)nc2)CC1` [Example 146, (S)-1-(4-(6-(3-(1-(3-fluorobenzyl)-1H-pyrazol-4-yl)-1H-pyrrolo[2,3-b]pyridin-5-yl)pyridin-3-yl)piperazin-1-yl)propan-2-ol] in this work.
An IC50 of less than 50 nM, an inhibition at 0.1 µM of 93% and an inhibition at 1 µM of 100% were found for `C[C@@H](O)CN1CCN(c2ncc(-c3cnc4[nH]cc(-c5cnn(Cc6cccc(F)c6)c5)c4c3)cc2F)CC1` [Example 180, (R)-1-(4-(3-fluoro-5-(3-(1-(3-fluorobenzyl)-1H-pyrazol-4-yl)-1H-pyrrolo[2,3-b]pyridin-5-yl)pyridin-2-yl)piperazin-1-yl)propan-2-ol] in this work.
An IC50 of less than 50 nM, an inhibition at 0.1 µM of 59% and an inhibition at 1 µM of 82% were found for `COc1ccc(-c2cnc3[nH]cc(-c4cnn(CCc5ccccc5)c4)c3c2)cc1NS(C)(=O)=O` [Example 64, N-(2-methoxy-5-(3-(1-phenethyl-1H-pyrazol-4-yl)-1H-pyrrolo[2,3-b]pyridin-5-yl)phenyl) methanesulfonamide] in this work.
An IC50 of less than 50 nM, an inhibition at 0.1 µM of 61% and an inhibition at 1 µM of 100% were found for `COc1ccc(-c2cnc3[nH]cc(-c4cnn(CCc5cccc(F)c5)c4)c3c2)cc1NS(C)(=O)=O` [Example 75, N-(5-(3-(1-(3-fluorophenethyl)-1H-pyrazol-4-yl)-1H-pyrrolo[2,3-b]pyridin-5-yl)-2-methoxyphenyl)methanesulfonamide] in this work.
An inhibition at 0.1 µM of 94% and an inhibition at 1 µM of 100% were found for `Cc1cc(-c2cnc3[nH]cc(-c4cnn(Cc5cccc(F)c5)c4)c3c2)ccc1N1CCN(C[C@H](C)O)CC1` [Example 115, (S)-1-(4-(4-(3-(1-(3-fluorobenzyl)-1H-pyrazol-4-yl)-1H-pyrrolo[2,3-b]pyridin-5-yl)-2-methylphenyl)piperazin-1-yl)propan-2-ol] in this work.
An IC50 of less than 50 nM, an inhibition at 0.1 µM of 100% and an inhibition at 1 µM of 100% were found for `Fc1cccc(Cn2cc(-c3c[nH]c4ncc(-c5ccc(NC6CCNCC6)cc5)cc34)cn2)c1` [Example 100, N-(4-(3-(1-(3-fluorobenzyl)-1H-pyrazol-4-yl)-1H-pyrrolo[2,3-b]pyridin-5-yl)phenyl)piperidin-4-amine] in this work.
An IC50 of less than 50 nM, an inhibition at 0.1 µM of 69% and an inhibition at 1 µM of 91% were found for `CCS(=O)(=O)N1CCN(c2ccc(-c3cnc4[nH]cc(-c5cnn(Cc6cccc(F)c6)c5)c4c3)cn2)CC1` [Example 156, 5-(6-(4-(ethylsulfonyl)piperazin-1-yl)pyridin-3-yl)-3-(1-(3-fluorobenzyl)-1H-pyrazol-4-yl)-1H-pyrrolo[2,3-b]pyridine] in this work.
An IC50 of 50 to 250 nM, an inhibition at 0.1 µM of 73% and an inhibition at 1 µM of 99% were found for `Cc1nn(Cc2cccc(F)c2)c(C)c1-c1c[nH]c2ncc(-c3ccc(OCCN(C)C)c(NS(C)(=O)=O)c3)cc12` [Example 23, N-(2-(2-(dimethylamino)ethoxy)-5-(3-(1-(3-fluorobenzyl)-3,5-dimethyl-1H-pyrazol-4-yl)-1H-pyrrolo[2,3-b]pyridin-5-yl)phenyl)methanesulfonamide] in this work.
An IC50 of 50 to 250 nM and an inhibition at 1 µM of 95% were found for `CS(=O)(=O)Nc1cccc(-c2cnc3[nH]cc(-c4cnn(Cc5cc(F)ccc5F)c4)c3c2)c1` [Example 4, N-(3-(3-(1-(2,5-difluorobenzyl)-1H-pyrazol-4-yl)-1H-pyrrolo[2,3-b]pyridin-5-yl)phenyl)methane sulfonamide] in this work.
An IC50 of less than 50 nM, an inhibition at 0.1 µM of 84% and an inhibition at 1 µM of 98% were found for `c1cncc(Cn2cc(-c3c[nH]c4ncc(-c5ccc(C6CCNCC6)cc5)cc34)cn2)c1` [Example 89, 5-(4-(piperidin-4-yl)phenyl)-3-(1-(pyridin-3-ylmethyl)-1H-pyrazol-4-yl)-1H-pyrrolo[2,3-b]pyridine] in this work.
